Assay results as given in US20180238886A1, “METHODS FOR TREATING HEMATOLOGICAL CANCER AND THE USE OF BIOMARKERS AS A PREDICTOR FOR RESPONSIVENESS TO TREATMENT COMPOUNDS” (CELGENE CORPORATION, priority 2017, published 2018).

Tested on: DLBCL patients
Assay: Clinical evaluation of gene classifiers in the Compound A cohort (progression free survival, objective response)
Type: in vivo, human
Design: Median Surv BM+ / Median Surv BM−: unit not given here
Settings: for Predictive Effects Cox HR: BM+ vs BM-; for Predictive Effects Cox HR / Median Surv BM− / Median Surv BM+: progression free survival, Cmp A-ST (N = 57); for Median Surv BM−: biomarker-negative patients; for Median Surv BM+: biomarker-positive patients; for CR BM+ / CR BM−: number of complete responses; for OR BM+ / OR BM−: number of objective responses
From the text: A proof of principle study was designed to translate the biomarker content and model to a clinically viable platform. The study consisted of four major steps: 1) development of a simplified linear model of the primary signal, 2) placing the model in the scale of a clinically viable technology (such as but not limited to, Nanostring nCounter or qRT-PCR), 3) establishing a threshold to replicate the output of the research assay, and 4) evaluating the simplified model and threshold in the Compound A cohort. The final model was applied to the Lenz microarray cohort and the Compound A Non-transformed cohort assayed by Nanostring nCounter. The classification of each sample was then combined with clinical data, and associations with clinical variables such as objective response and progression free survival were calculated. Results are shown as Kaplan-Meier plots in FIGS. 4A-4D. […] FIGS. 4A and 4C show the original 26 gene research classifier, and FIGS. 4B and 4D show the linear model that resulted from this bridging study. […] Importantly, the shapes of the curves for each group are very similar between the original 26 gene classifier and the bridged linear model. Additional results including biomarker prevalence, summary statistics from Cox Proportional Hazards models, objective response, and model details are listed in Table 6.

[1] = CG26 classifier, BM+ (25 patients)
[2] = CG26 classifier, BM− (32 patients)
[3] = M1 classifier, BM+ (22 patients)
[4] = M1 classifier, BM− (35 patients)

For `Cc1nc2cccc(N)c2c(=O)n1C1CCC(=O)NC1=O` (centres unmarked) [Compound A, 3-(5-amino-2-methyl-4-oxo-4H-quinazolin-3-yl)-piperidine-2,6-dione], the “Predictive Effects Cox HR” value (CG26 classifier) was 0.31, the “Median Surv BM−” value (CG26 classifier) was 6.7 and the “Median Surv BM+” value (CG26 classifier) was 35.9. The “Predictive Effects Cox HR” value (M1 classifier) was 0.32, the “Median Surv BM−” value (M1 classifier) was 6.9 and the “Median Surv BM+” value (M1 classifier) was 37.9. For the same molecule, the “CR BM+” value [1] was 4, the “CR BM−” value [2] was 2 and the “CR BM+” value [3] was 4. The “CR BM−” value [4] was 2, the “OR BM+” value [1] was 12 and the “OR BM−” value [2] was 5. The “OR BM+” value [3] was 10 and the “OR BM−” value [4] was 7.
